Entries after “also recorded” stand apart in the source; their conditions may differ. Like-named read-outs stand apart in the source and are kept apart here.
Assays:
hilA [1] = type: cell-based, Salmonella Typhimurium
wild type HilD = wild type HilD (Salmonella typhimurium, UniProt P0CL08); type: cell-based; settings: 20 μM, wild type HilD strain
HilD mutant K293A = HilD mutant K293A (Salmonella typhimurium, UniProt P0CL08, K293A); type: cell-based; settings: 20 μM
HilD mutant K294A = HilD mutant K294A (Salmonella typhimurium, UniProt P0CL08, K294A); type: cell-based; settings: 20 μM
[2] = system: Salmonella SPI1 expression (sicA-GFP); type: in vivo, mice
HilD [3] = molecular target: T1, HilD (Salmonella typhimurium, UniProt P0CL08); type: cell-based; settings: lon mutant
hilA [4] = type: cell-based, Salmonella; settings: absence of lon, 20 μM
HilD [5] = molecular target: T1, HilD; type: binding
HilC = HilC (Salmonella typhimurium, UniProt P0CL09); type: binding
RtsA = type: binding, Salmonella

HilD mutant K294A, sequence (P0CL08 whole entry K294A, looked up): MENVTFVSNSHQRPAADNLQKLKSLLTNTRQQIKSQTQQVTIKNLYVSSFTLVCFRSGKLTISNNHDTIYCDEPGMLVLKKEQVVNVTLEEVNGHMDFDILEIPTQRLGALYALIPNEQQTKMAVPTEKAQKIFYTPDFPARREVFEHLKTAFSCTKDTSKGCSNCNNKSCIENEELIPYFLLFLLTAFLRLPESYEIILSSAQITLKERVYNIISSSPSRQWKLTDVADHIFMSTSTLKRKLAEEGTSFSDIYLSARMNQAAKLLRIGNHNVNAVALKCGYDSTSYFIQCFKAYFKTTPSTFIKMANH
HilD mutant K293A, sequence (P0CL08 whole entry K293A, looked up): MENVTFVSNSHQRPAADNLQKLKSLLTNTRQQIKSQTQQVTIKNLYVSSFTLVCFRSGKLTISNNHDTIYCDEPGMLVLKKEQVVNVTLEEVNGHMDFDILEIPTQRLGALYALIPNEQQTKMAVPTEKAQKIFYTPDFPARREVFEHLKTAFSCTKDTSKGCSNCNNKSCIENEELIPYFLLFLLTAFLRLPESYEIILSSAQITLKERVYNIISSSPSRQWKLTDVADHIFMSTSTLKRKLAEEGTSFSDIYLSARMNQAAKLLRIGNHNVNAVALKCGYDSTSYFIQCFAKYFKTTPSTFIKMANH
T1 sequence (P0CL08 whole entry): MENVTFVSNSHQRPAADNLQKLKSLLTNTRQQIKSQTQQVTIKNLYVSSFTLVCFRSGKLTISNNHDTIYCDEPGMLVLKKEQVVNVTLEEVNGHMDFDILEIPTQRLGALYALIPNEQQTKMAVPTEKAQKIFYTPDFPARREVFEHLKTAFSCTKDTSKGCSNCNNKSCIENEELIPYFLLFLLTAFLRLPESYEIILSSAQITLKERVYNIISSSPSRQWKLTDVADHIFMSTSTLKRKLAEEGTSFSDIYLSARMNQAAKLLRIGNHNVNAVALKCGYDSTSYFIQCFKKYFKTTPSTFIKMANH
wild type HilD, sequence (P0CL08 whole entry): as above
HilC, sequence (P0CL09 whole entry): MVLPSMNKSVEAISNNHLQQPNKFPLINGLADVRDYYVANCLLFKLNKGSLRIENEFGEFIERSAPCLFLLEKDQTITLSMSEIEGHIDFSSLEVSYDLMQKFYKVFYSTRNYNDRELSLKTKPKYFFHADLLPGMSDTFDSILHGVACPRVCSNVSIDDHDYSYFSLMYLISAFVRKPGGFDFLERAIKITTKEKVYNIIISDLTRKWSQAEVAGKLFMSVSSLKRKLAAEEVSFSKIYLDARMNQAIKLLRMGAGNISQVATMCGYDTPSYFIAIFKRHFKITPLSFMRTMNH

Row | Structure (SMILES) | hilA (invasion gene) expression (hilA [1]) | reduction of sipB expression (wild type HilD) | reduction of sipB expression (HilD mutant K293A) | reduction of sipB expression (HilD mutant K294A) | percentage of Salmonella expressing SPI in the gut ([2]; mice n=5/group, P<0.01 vs control) | reduction of percentage of bacteria expressing an invasion gene in the caecum ([2]; mice, 1.5 mM in drinking water, hilD UTR A25G strain) | effect on HilD stability (HilD [3]) | hilA expression (hilA [4]) | binding of HilD to hilA promoter (HilD [5]; 20 μM, 10 nM DNA, 150 μM protein) | binding of HilD to hilA promoter (HilD [5]; 20 μM, 10 nM DNA, 150 μM protein, listed as cis-2-hexadecenoic acid) | binding of HilD to hilA promoter (HilD [5]; 1, 2, 5 and 10 μM) | binding of HilD to hilA promoter (HilD [5]; 1, 2, 5 and 10 μM, listed as cis-2-hexadecenoic acid) | binding of HilC to hilA promoter (HilC; 100 μM) | binding of HilC to hilA promoter (HilC; 100 μM, listed as cis-2-hexadecenoic acid) | binding of HilC to hilA promoter (HilC; 10, 25, 50 and 75 μM) | binding of HilC to hilA promoter (HilC; 10, 25, 50 and 75 μM, listed as cis-2-hexadecenoic acid) | binding of RtsA to hilA promoter (RtsA)
1 | CCCCCCCCC/C=C\C(=O)O [2-cis-dodecenoic acid, (Z)-dodec-2-enoic acid] | reduced expression to a lesser degree | 4.1 fold | no significant reduction | no significant reduction | – | – | – | – | – | – | – | – | – | – | – | – | –
2 | CCCCCCCCCCCCC/C=C\C(=O)O [2-cis-hexadecenoic acid, (Z)-hexadec-2-enoic acid] | reduced expression to a lesser degree | ~11 fold | No significant repression | No significant repression | reduces the percentage | 2 fold | no effect | continued to repress | prevented the binding | completely inhibited from binding | partially inhibited binding | did so partially | preventing binding | prevented binding | partially inhibited binding | did so partially | preventing binding; also recorded: partially inhibited binding; also recorded: prevented binding; also recorded: did so partially
3 | CCCCCCCCCCCCC/C=C/C(=O)O [2-trans-hexadecenoic acid, reference compound] | – | 5.2 fold | 4.7 fold | 4.5 fold | – | – | – | – | – | – | – | – | – | – | – | – | –

Reference: patent publication US20230201275A1 (priority 2020, published 2023)
